From US20190054051A1, “DOPA Formulations for Treatments of Parkinson's Disease” (The Board of Trustees of the Leland Stanford Junior …, priority 2017, published 2019)

Legend:
Akt = test: Western blot of phospho Akt (T308, S473) in striatum; design: species or system mice; conditions: mouse, in vivo
Experimental: (§1) After behavioral testing, mice again received their assigned injection and then, 45 minutes later, were decapitated under anesthesia. Tissue samples were processed as follows. Briefly, the brain was dissected, rapidly frozen on dry ice, and stored at −80° C. Striatal tissue was collected from 100 μm coronal slices cut at the level of striatum using a cryostat (Leica CM1950, Leica Biosystems Inc, Buffalo Groove, Ill.). Striatal samples from the intact and the lesioned hemisphere were separately collected in 150p1 of lysis solution (Totally RNA, Ambion, Austin, Tex.). Care was taken to make sure that the tissue samples were collected from similar regions in all the brain samples analyzed, since there are differences in the expression of GRKs from rostral to caudal CPu. Protein concentration was estimated using Bradford reagent (Bio-Rad, Hercules, Calif.). 200m protein was precipitated with 100% methanol and centrifuged at 10000 g for 10 mins in a table top centrifuge. The pellet was re-suspended in 90% methanol and centrifuged for an additional 10 mins at 10000 g. The supernatant was discarded and the pellet was air dried and dissolved in 400 μL of β-mercaptoethanol containing 2× Laemmli sample buffer (Biorad, Hercules, Calif.), for a final concentration of 0.5 mg/mL. These samples were stored at −80° C. until use. Samples were electrophoresed through 10% polyacrylamide gels and transferred on to Immobilon-P PVDF membranes (Millipore, Bedford, Mass.) and processed. […] Western blots were quantified using band densitometry in Image J software (NIH version). […] Results are represented as group mean±SEM and analyzed using one-way or repeated-measures ANOVA (RM-ANOVA), with post hoc Bonferroni tests. The mouse cylinder test was analyzed with RM-ANOVA, with group (DOPA and DOPA-ranitidine formulations) as a between-group factor and saline vs. DOPA treatment as a within-group factor. AIMs scores were analyzed using the Kruskal Wallis test for pre-testing (DOPA injected animals) and the Mann-Whitney U test for the post-testing sessions (DOPA vs DOPA-ranitidine formulations). […]

Δ Fos B = test: Western blot of Δ Fos B accumulation in striatum; design: species or system mice; conditions: mouse, in vivo
Experimental: as §1, with “CPu.” for “CPu. Protein concentration was estimated using Bradford reagent (Bio-Rad, Hercules, Calif.). 200m protein was precipitated with 100% methanol and centrifuged at 10000 g for 10 mins in a table top centrifuge. The pellet was re-suspended in 90% methanol and centrifuged for an additional 10 mins at 10000 g. The supernatant was discarded and the pellet was air dried and dissolved in 400 μL of β-mercaptoethanol containing 2× Laemmli sample buffer (Biorad, Hercules, Calif.), for a final concentration of 0.5 mg/mL. These samples were stored at −80° C. until use. Samples were electrophoresed through 10% polyacrylamide gels and transferred on to Immobilon-P PVDF membranes (Millipore, Bedford, Mass.) and processed.”

SMILES	Akt phosphorylation at Ser473 (Akt)	Akt phosphorylation at Thr308 in the lesioned striatum (Akt)	Δ Fos B accumulation on the lesioned side (Δ Fos B)
N[C@@H](Cc1ccc(O)c(O)c1)C(=O)O [L-DOPA, L-3,4-dihydroxyphenylalanine]	not statistically significant	elevated in the lesioned striatum	significantly increased on the lesioned side
CN/C(=C\[N+](=O)[O-])NCCSCc1ccc(CN(C)C)o1 [Ranitidine, N-(2-[(5-[(dimethylamino)methyl]furan-2-yl)methylthio]ethyl)-N′-methyl-2-nitroethene-1,1-diamine]	–	no effect	no effects
